# Test results from publication PMC12782889, “A GmNRF5a–GmCERK1–GmCAK1 module mediates chitin/chitosan‐triggered immune response in soybean” (Journal of Integrative Plant Biology, 2025).
# Legend:
# [1] = system: GmCERK1^ECDY109R; experiment: MST binding to GmCERK1^ECD mutant Y109R; parameters: species or system soybean (Glycine max); conditions: ligand dp6
# From the text: (§1) The ectodomains of GmCERK1, GmNFR5a, and mutants were cloned into the yeast expression vector pPICZαA (Thermo Fisher Scientific, Shanghai, China) through the double digestion and ligation using the restriction endonuclease EcoRI/XbaI (NEB, Suzhou, China) and T4 ligase. Then, the linearized recombinant plasmid pPICZαA‐GmCERK1 and pPICZαA‐GmNFR5a were transformed into P. pastoris X‐33. The positive colonies were selected on YPDS medium (1% w/v yeast extract, 2% w/v peptone, 2% w/v glucose, 2% w/v agar, 100 μg/mL antibiotic Zeocin (Thermo Fisher Scientific)) plates and verified by direct DNA sequencing. Protein expression was carried out initially in BMGY media (100 mM potassium phosphate pH 6.0, 1.34% w/v YNB, 4 × 10^−5% w/v biotin, 1% v/v glycerol) at 28°C with shaking (180 rpm) until the OD600 reached 2.0–6.0. The cell pellet was transferred into BMMY medium (100 mM potassium phosphate pH 6.0, 1.34% w/v YNB, 4 × 10^−5% w/v biotin, 0.5% v/v methanol) and continuously supplied with the addition of 0.5% (v/v) methanol every day for 5 d. […]
# (§2) GmCERK1^ECD, GmNFR5a^ECD, and all mutants were labeled with a fluorescent dye using the Monolith Protein Labeling Kit RED‐NHS second Generation (MO‐L011). […] The data were analyzed and fitted by plotting ligand concentrations against bound fractions using the MO.Affinity Analysis v3.0.5 software. […]
# [2] = molecular target: GmNFR5a^ECD (Glycine max, UniProt A5YJV9); experiment: Microscale thermophoresis (MST) binding to GmNFR5a^ECD; parameters: species or system soybean (Glycine max); conditions: ligand dp6, His-tagged protein purified from Pichia pastoris, read-out: dissociation constant (K D) with GmNFR5a^ECD
# Sequence of GmNFR5a^ECD (A5YJV9 entry or part of it): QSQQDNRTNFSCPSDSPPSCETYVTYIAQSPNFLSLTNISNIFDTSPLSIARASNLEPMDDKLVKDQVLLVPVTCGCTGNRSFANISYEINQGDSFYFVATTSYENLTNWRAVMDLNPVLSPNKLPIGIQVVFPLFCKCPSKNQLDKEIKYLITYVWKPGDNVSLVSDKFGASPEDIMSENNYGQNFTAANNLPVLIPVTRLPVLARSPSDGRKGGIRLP
# From the text: as §1, §2
# [3] = system: GmCERK1^ECDI137R; experiment: MST binding to GmCERK1^ECD mutant I137R; parameters: species or system soybean (Glycine max); conditions: ligand dp6
# From the text: as §1, §2
# [4] = system: GmNFR5a^ECDF124R; experiment: MST binding to GmNFR5a^ECD mutant F124R; parameters: species or system soybean (Glycine max); conditions: ligand dp6
# From the text: as §1, §2
# [5] = molecular target: GmCERK1^ECD (Glycine max, UniProt K7N1N7); experiment: Microscale thermophoresis (MST) binding to GmCERK1^ECD; parameters: species or system soybean (Glycine max); conditions: ligand dp6, His-tagged protein purified from Pichia pastoris, read-out: dissociation constant (K D) with GmCERK1^ECD
# Sequence of GmCERK1^ECD (K7N1N7 entry or part of it): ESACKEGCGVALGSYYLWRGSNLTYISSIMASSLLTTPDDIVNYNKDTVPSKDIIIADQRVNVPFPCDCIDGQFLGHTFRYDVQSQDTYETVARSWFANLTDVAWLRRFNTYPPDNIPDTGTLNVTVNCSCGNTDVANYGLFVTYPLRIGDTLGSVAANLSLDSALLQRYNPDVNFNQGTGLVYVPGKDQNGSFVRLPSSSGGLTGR
# From the text: as §1, §2
# [6] = system: Phytophthora sojae P6497; experiment: P. sojae infection of pretreated soybean hairy roots (GFP control); type: in vivo, Phytophthora sojae on soybean (Glycine max); conditions: control hairy roots expressing GFP; 50 mg/L soak 12 h; 48 hpi; vs dH2O; P < 0.0001
# From the text: Soybean (cultivar Williams) seeds were surface sterilized and germinated as previously described ([Kereszt et al., 2007]). Soybean cotyledons were removed from […] seedlings grown in vermiculite. Cotyledons were harvested at Day 7 by gently twisting them off the hypocotyl. Only unblemished cotyledons were employed for all protocols. Individual cotyledons were surface sterilized by wiping with an alcohol swab soaked in 70% ethanol. The alcohol swab was wrung out slightly before use, so that it was wet but not dripping. […] Hairy roots were monitored for green fluorescence production over a period of 4 weeks. For silencing in hairy roots, the transcript levels of the targeted gene and its closest paralogs were measured in fluorescent green hairy roots using qRT‐PCR to assess silencing efficiency.
# For soybean etiolated hypocotyls inoculation assays, etiolated hypocotyls of soybean (cultivar Williams) were inoculated with P. sojae zoospore suspensions (100 zoospores). […] For soybean hairy‐root inoculation assays, transgenic hairy roots were soaked in CTOS/CSOS (50 mg/L) or mock (dH2O) for 12 h and then were infected with red fluorescent protein (RFP)‐labeled P. sojae strain P6497, and fluorescence was visualized in the infected area of soybean hairy root and the biomass of P. sojae was determined by qRT‐PCR at 48 hpi.
SMILES,interaction with GmCERK1^ECDY109R [1],Kd [2] [mM],interaction with GmCERK1^ECDI137R [3],interaction with GmNFR5a^ECDF124R [4],Kd [5] [mM],soybean defense against P. sojae (pathogen biomass) [6]
"N[C@H]1[C@H](O[C@H]2[C@H](O)[C@@H](N)[C@H](O[C@H]3[C@H](O)[C@@H](N)[C@H](O[C@H]4[C@H](O)[C@@H](N)[C@H](O[C@H]5[C@H](O)[C@@H](N)[C@H](O[C@H]6[C@H](O)[C@@H](N)C(O)O[C@@H]6CO)O[C@@H]5CO)O[C@@H]4CO)O[C@@H]3CO)O[C@@H]2CO)O[C@H](CO)[C@@H](O)[C@@H]1O (some centres unmarked) [CSOS (dp6), chitosan oligosaccharide]",cannot interact,7.04 ± 2.62,cannot interact,cannot interact,10.6 ± 1.46,–
"CC(=O)N[C@H]1[C@H](O[C@H]2[C@H](O)[C@@H](NC(C)=O)[C@H](O[C@H]3[C@H](O)[C@@H](NC(C)=O)C(O)O[C@@H]3CO)O[C@@H]2CO)O[C@H](CO)[C@@H](O[C@@H]2O[C@H](CO)[C@@H](O[C@@H]3O[C@H](CO)[C@@H](O[C@@H]4O[C@H](CO)[C@@H](O)[C@H](O)[C@H]4NC(C)=O)[C@H](O)[C@H]3NC(C)=O)[C@H](O)[C@H]2NC(C)=O)[C@@H]1O (some centres unmarked) [CTOS (dp6), chitin oligosaccharide]",–,20.5 ± 6.07,–,–,3.25 ± 0.95,significantly bolstered
